Reference: US20070275923A1, “CATIONIC PEPTIDES FOR siRNA [sequence] [sequence]” (NASTECH PHARMACEUTICAL COMPANY INC., priority 2006, published 2007)
Non-standard residues stand in square brackets, D forms with d. Residues, ends and D or L forms follow the SMILES beside them. *: point of attachment. Propanoyl(3-maleimido) = O=C1C=CC(=O)N1CCC(=O)*

Assays:
[1] = tested on: Mouse tail fibroblast (MTF) cells; assay: siRNA cell-uptake and MFI measured by FACS after peptide-mediated transfection of labeled siRNA; type: cell-based; details: for intracellular delivery of siRNA (verbal conclusion from cell-uptake and cell viability): conclusion drawn from Table 3; for % Cell-Uptake / MFI: 200 nM labeled siRNA; for % Cell-Uptake: % of total cells with intracellular labeled siRNA; for MFI: relative value, higher = more labeled siRNA entered the cell
Protocol: SiRNA cell uptake was measured by FACS.
For the instant example, cell-uptake, mean fluorescent intensity (MFI) and cell viability was measured for each peptide. siRNA cell-uptake was measured by the presence of intracellular labeled siRNA. The cell-uptake assay determined the percentage of cells that contain the labeled siRNA. Mean Fluorescence Intensity (MFI) was used to determine the relative mean quantity of labeled siRNA that entered the cells.
A non-transfection, siRNA alone, control was also performed.
Within Table 3, “ND” means no data.

in vitro = details: C57BL/6J, mouse, mouse tail fibroblast (MTF) cells
Protocol: Mouse tail fibroblast (MTF) cells were derived from the tails of C57BL/6J mice. Tails were removed, immersed in 70% ethanol and then cut into small sections with a razor blade. The sections were washed three times with PBS and then incubated in a shaker at 37° C. with 0.5 mg/mL collagenase, 100 units/mL penicillin and 100 μg/mL streptomycin to disrupt tissue. Tail sections were then cultured in complete media (Dulbecco's Modified […] Medium with 20% FBS, 1 mM sodium pyruvate, nonessential amino acids and 100 units/mL penicillin and 100 μg/mL streptomycin) until cells were established. Cells were cultured at 37° C., 5% CO2 in complete media as outlined above.
Cells were be plated per well in a microtiter plate the day before transfection in complete media. The siRNA was be labeled, for example with a FAM, Alexa488, Alexa647 or Cy-5 conjugate. The cationic polymer peptide and siRNA were mixed in the microtiter plate complex with cells previously with OptiMEM. 7-AAD was added to each transfection to measure cell viability. Cells were transfected for three hours at 37° C., 5% CO2. The transfection mixture was removed and the cells were washed with TE buffer for about 10 minutes at 37° C., 5% CO2. Transfected cells were transferred to a V bottom plate and centrifuged. The TE buffer was removed and the transfected cells were resuspended in fluorescence activated cell sorting (FACS) buffer.
A non-transfection, siRNA alone, control was also performed. The peptide PN183 served herein as a positive cell-uptake control.
Cell-uptake is expressed as a percentage of the total cells with intracellular labeled siRNA. Cell Viability is also expressed as a percentage where 100% represents 100% viability. The MFI value is a relative value with a higher MFI value indicating a greater amount of labeled siRNA entered the cell. Within Table 3, “ND” means no data.

Row | Compound | intracellular delivery of siRNA (verbal conclusion from cell-uptake and cell viability) [1] | % Cell-Uptake ([1]; peptide concentration 1 μM) | MFI ([1]; peptide concentration 1 μM) | % Cell-Uptake ([1]; peptide concentration 10 μM) | MFI ([1]; peptide concentration 10 μM) | % Cell-Uptake ([1]; peptide concentration 100 μM) | MFI ([1]; peptide concentration 100 μM) | viability at 3 h, 1 µM (in vitro) | viability at 3 h, 10 µM (in vitro) | viability at 3 h, 100 µM (in vitro)
1 | N=C(N)NCCC[C@@H](N)C(=O)N[C@@H](CCCNC(=N)N)C(=O)N[C@H](CCCNC(=N)N)C(=O)N[C@@H](CCCNC(=N)N)C(=O)N[C@H](CCCNC(=N)N)C(=O)N[C@@H](CCCNC(=N)N)C(=O)N[C@H](CCCNC(=N)N)C(=O)N[C@@H](CCCNC(=N)N)C(=O)N[C@H](CCCNC(=N)N)C(=O)N[C@@H](CCCNC(=N)N)C(=O)N[C@H](CCCNC(=N)N)C(=O)N[C@@H](CCCNC(=N)N)C(=O)N[C@H](CCCNC(=N)N)C(=O)N[C@@H](CCCNC(=N)N)C(=O)N[C@H](CCCNC(=N)N)C(=O)N[C@@H](CCCNC(=N)N)C(=O)N[C@H](CCCNC(=N)N)C(=O)N[C@@H](CCCNC(=N)N)C(=O)N[C@H](CCCNC(=N)N)C(=O)N[C@@H](CCCNC(=N)N)C(N)=O [PN912, NH2-(Xaa-Arg)10-amide] (H-[dR]R[dR]R[dR]R[dR]R[dR]R[dR]R[dR]R[dR]R[dR]R[dR]R-NH2) | effective intracellular delivery of siRNA without negatively impacting cell viability | 61.2% | 4.32 | 73.3% | 4.72 | 86.2% | 5.41 | 96.9% | 96.1% | 90%
2 | CC[C@H](C)[C@H](NC(=O)[C@H](C)NC(=O)CNC(=O)[C@H](Cc1ccccc1)NC(=O)[C@@H](NC(=O)[C@H](CCC(=O)O)NC(=O)[C@H](CC(N)=O)NC(=O)CNC(=O)[C@H](Cc1c[nH]c2ccccc12)NC(=O)[C@H](CCC(=O)O)NC(=O)CNC(=O)[C@H](CCSC)NC(=O)[C@@H](NC(=O)[C@H](CC(=O)O)NC(=O)[C@@H]1CCCN1C(=O)[C@H](CCC(N)=O)NC(=O)[C@H](CO)NC(=O)[C@H](CCCCN)NC(=O)[C@H](CCCCN)NC(=O)[C@H](CCCCN)NC(=O)[C@H](CCCCN)NC(=O)[C@H](CCCCN)NC(=O)[C@H](CCCCN)NC(=O)[C@H](CCCCN)NC(=O)[C@H](CCCCN)NC(=O)CCN1C(=O)C=CC1=O)[C@@H](C)CC)[C@@H](C)CC)C(=O)N[C@@H](C)C(=O)NCC(=O)N[C@@H](Cc1ccccc1)C(=O)N[C@@H](CC(C)C)C(=O)NCC(N)=O [PN947] ({Propanoyl(3-maleimido)}-KKKKKKKKSQPDIMGEWGNEIFGAIAGFLG-NH2; N-terminus assumed) | – | 2.8% | 1.23 | 12.3% | 1.44 | 49.5% | 4.6 | 98.7% | 97.9% | 99.3%
3 | H-KKKKKKKKKK-NH2 [PN932, NH2-(Lys)10-amide] | – | 0.4% | – | 1% | – | 1% | – | 97.3% | 96.7% | 98.4%
4 | H-KHKHKHKHKHKHKHKHKHKH-NH2 [PN938, NH2-(Lys-His)10-amide] | – | 0.6% | – | 0.5% | – | 5.9% | – | 97.9% | 98.6% | 98.8%
5 | H-KHKHKHKHKHKHKHKHKHKHKHKHKHKHKH-NH2 [PN935, NH2-(Lys-His)15-amide] | effective intracellular delivery of siRNA without negatively impacting cell viability | 20.3% | 1.94 | 36.1% | 2.2 | 24.6% | 2.16 | 98.1% | 97.3% | 96.6%
